{"source": "ChEMBL document CHEMBL1201862", "about": "“PubChem BioAssay data set” (2004)", "type_in_all_cases": "functional", "key": {"HEK293": {"tested_on": "HEK293", "assay": "Fluorescence-based counterscreen for potentiators or agonists of NPY-Y2: cell-based high-throughput dose response assay to identify inhibitors of cyclic nucleotide gated ion channel (CNGC) activity. In this assay, the parental HEK293 cell line transfected with a cyclic-nucleotide gated ion channel (CNGC)-based cAMP sensor is used to measure inhibition of isoproterenol-induced CNGC activity by test compound.", "conditions": "Homo sapiens"}, "[1]": {"target": "T1, Neuropeptide Y receptor type 2 (Homo sapiens, UniProt P49146)", "T1 sequence (P49146 whole entry)": "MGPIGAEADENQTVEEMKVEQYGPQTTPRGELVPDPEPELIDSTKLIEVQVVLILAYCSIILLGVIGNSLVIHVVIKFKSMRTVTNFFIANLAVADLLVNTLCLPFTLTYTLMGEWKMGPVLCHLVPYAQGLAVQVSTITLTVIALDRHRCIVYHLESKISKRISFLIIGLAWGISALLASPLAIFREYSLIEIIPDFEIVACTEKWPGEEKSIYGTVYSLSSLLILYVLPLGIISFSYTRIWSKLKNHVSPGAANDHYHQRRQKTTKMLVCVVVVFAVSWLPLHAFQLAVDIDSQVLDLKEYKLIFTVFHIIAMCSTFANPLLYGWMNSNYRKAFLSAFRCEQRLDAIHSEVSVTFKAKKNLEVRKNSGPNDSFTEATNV", "assay": "Fluorescence-based cell-based high-throughput dose response assay for agonists of NPY-Y2. [Related pubchem assays: 1703 (Screening assay (CNGC inhibitors).), 1359 (Screening assay (NPY-Y2 potentiators or agonists).), 1304 (Screening assay (NPY-Y1 potentiators or agonists).), 1710 (Screening assay (NPY-Y2 agonists).), 1791 (Summary AID.)]"}, "[2]": {"target": "T2, Neuropeptide Y receptor type 1 (Homo sapiens, UniProt P25929)", "T2 sequence (P25929 whole entry)": "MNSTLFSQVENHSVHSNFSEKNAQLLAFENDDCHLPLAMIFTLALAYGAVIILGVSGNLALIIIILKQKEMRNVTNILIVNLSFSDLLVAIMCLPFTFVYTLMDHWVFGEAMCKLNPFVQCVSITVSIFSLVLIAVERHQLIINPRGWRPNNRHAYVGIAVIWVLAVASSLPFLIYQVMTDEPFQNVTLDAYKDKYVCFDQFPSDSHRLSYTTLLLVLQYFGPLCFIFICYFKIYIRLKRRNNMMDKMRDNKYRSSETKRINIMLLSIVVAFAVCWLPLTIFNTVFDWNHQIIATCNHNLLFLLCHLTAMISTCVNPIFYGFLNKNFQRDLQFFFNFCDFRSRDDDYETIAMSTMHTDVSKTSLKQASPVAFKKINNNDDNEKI", "assay": "Fluorescence-based counterscreen for agonists of NPY-Y2: cell-based high-throughput dose response assay for agonists of NPY-Y1."}}}
{"smiles": "COC(=O)/C(=C/c1cn(C(C)=O)c2ccccc12)[N+](=O)[O-]", "values": [{"measurement": "EC50", "setting": "HEK293", "result": "12.3 µM (not active)"}, {"measurement": "EC50", "setting": "[1]", "result": "> 35.4 µM (not active)"}, {"measurement": "EC50", "setting": "[2]", "result": "> 35.4 µM (not active)"}]}
